Source: patent US20250064799A1, “ORAL FORMULATIONS OF LEVOSIMENDAN FOR TREATING PULMONARY HYPERTENSION WITH HEART FAILURE WITH PRESERVED EJECTION FRACTION” (Tenax Therapeutics, Inc., priority 2021, published 2025)

Test system: patients with PH-HFpEF
Experiment: Resting heart rate and systolic arterial blood pressure, I.V. to oral levosimendan transition study
Type: in vivo, human
Experimental: Once that dose is determined, the study is identical with respect to the protocol. Since the I.V. formulation is weight based, and bypasses issues of bioavailability that may be affected by drug absorption, a dose escalation strategy is being adopted, guided by the individual patient response and any adverse events that may occur. Thus, the measurement of a six-minute walk test and patient questionnaire before and after the transition was to ensure that the patient continues to benefit. In addition, the monitoring of the patients' blood pressure and heart rate each day was to ensure that the oral dose remains safe.
The following considerations justified amending the TNX-LVO-05 study protocol: • 1. The amended TNX-LVO-05 protocol included the same patients enrolled in the original study. This was not a new study of the patients currently enrolled. This was open label, with no blinding of patients or physicians, and no control group. • 2. The scope and purpose of the study was unchanged, with the exception that it offered the further extension of treatment allowed by the transition to oral therapy (See item #4). • 3. The amendment clearly delineated a stepwise and thoughtful titration of patients from their intravenous to oral levosimendan to ensure the safe and effective transition of their levosimendan regimen. • a. Patients were started on 1 mg daily, representing a dose generally less than half their total weekly weight-based dose regimen. • b. Patients were titrated based on tolerance to the daily levosimendan paying attention to their symptoms of PH-HFpEF, and special attention to specific adverse events of interest, heart rate and blood pressure. A daily diary captured patient vitals and symptoms to aid their physician in titrating patients at two-week intervals. • c. Patient response also was evaluated by clinical measures to provide the physician with additional information on the patient's response. • d. While most patients were expected to receive 2-3 mg daily at the conclusion of the transition study, the dose escalation strategy was included to allow all patients to realize the same benefit as they did from the I.V. formulation. • e. To document the sustained efficacy of the oral formulation in these patients, patients had to undergo a six-minute walk test and patient questionnaire prior to and at the end of the transition study. • 4. The transition to oral levosimendan allowed for extension of the study from its initial two years to an additional three years. This offers these PH-HFpEF patients, with no other treatments available, to continue on a drug that they have responded to. • 5. The amendment required patients to sign a revised informed consent to ensure patients are completely informed concerning the transition amendment. Patients that preferred to continue with their weekly 24-hour I.V. regimen were allowed to continue through the initial two-year period of the study and then will be withdrawn.
Methods: Patients with PH-HFpEF who were in the open label extension study of the HELP Trial for more than 18 months volunteered to enroll in this transition protocol. Patients were initiated with 1 mg/day of oral levosimendan 5-7 days after the last IV levosimendan infusion. The oral dose was increased every 2 weeks by 1 mg/day to a maximum of 4 mg/day over an 8 week period. The highest daily dose was determined by the investigator based on clinical assessments of symptoms and side effects. The primary safety endpoints were change in resting heart rate and blood pressure from baseline to final study visit and all other adverse events. Secondary efficacy endpoints included change in six-minute walk distance (6MWD), serum brain natriuretic peptide (BNP) or NT-proBNP levels, and quality of life as assessed by Kansas City Cardiomyopathy Questionnaire clinical summary score (KCCQ-CS) and overall summary score (KCCQ-OS) from baseline to final study visit. […]

[1] = baseline to final study visit (week 6-8), oral levosimendan 3-4 mg/day

**Q.** `C[C@@H]1CC(=O)NN=C1c1ccc(NN=C(C#N)C#N)cc1` [levosimendan] was tested. Which “mean change in resting heart rate” value [1] did it give?
**A.** 4.9 (SD±7.5) beats/min

**Q.** What about the “mean change in systolic arterial blood pressure” value [1] of the same compound?
**A.** 4.1 (SD±12.6) mm Hg

**Q.** And the “Heart Rate Change from Baseline to Week 6 Oral, Mean” value (n=18)?
**A.** 6.9

**Q.** What about the “Heart Rate Change from Baseline to Week 6 Oral, Median” value (n=18) of the same compound?
**A.** 5.5

**Q.** What about the “Heart Rate Change from Baseline to Week 6 Oral, Minimum” value (n=18) of the same compound?
**A.** −9

**Q.** What about the “SBP Change from baseline to Week 6 - Oral, Maximum” value (n=18) of the same compound?
**A.** 34

**Q.** And the “SBP Change from baseline to Week 6 - Oral, Mean” value (n=18)?
**A.** 4.1

**Q.** What about the “SBP Change from baseline to Week 6 - Oral, Median” value (n=18) of the same compound?
**A.** 1.5

**Q.** And the “SBP Change from baseline to Week 6 - Oral, Minimum” value (n=18)?
**A.** −15
